These results are taken from ChEMBL document CHEMBL5053545, “Iterative Structure-Based Optimization of Short Peptides Targeting the Bacterial Sliding Clamp” (J Med Chem, 2021).

Activity calls are given as the source filed them. No cut-off for these calls is given here. Where a SMILES comes first, the peptide text is derived from it. [ ]: non-standard residue; d: D form. Phe(3,4-Cl2) = N[C@@H](Cc1ccc(Cl)c(Cl)c1)C(=O)O; Oic = O=C(O)[C@@H]1C[C@@H]2CCCC[C@@H]2N1; Cha = N[C@@H](CC1CCCCC1)C(=O)O

The nature of experiment [1]: Binding affinity to Escherichia coli sliding clamp assessed as dissociation constant by ITC analysis. Background: In ITC the heat of successive injections is recorded.
Experiment [2] relates to Escherichia coli. Nature of the experiment: Binding affinity to Escherichia coli sliding clamp assessed as gibbs free energy change by ITC analysis.
The test system of experiment [3] is Escherichia coli. Nature of the experiment: Binding affinity to Escherichia coli sliding clamp assessed as association rate constant by ITC analysis.
Experiment [4] has as its system Escherichia coli. Nature of the experiment: Binding affinity to Escherichia coli sliding clamp assessed as dissociation rate constant by ITC analysis.
The nature of experiment [5]: Inhibition of SC-dependent DNA replication in Escherichia coli using pU118 DNA as substrate preincubated for 10 mins followed by substrate addition and measured after 6 mins by PAGE electrophoresis.
Experiment [6] concerns Escherichia coli. Nature of the experiment: Antimicrobial activity against Escherichia coli D22 at 128 ug/ml incubated 18 to 24 hrs by broth microdilution method. The experiment is classed as functional, organism-based. As to conditions: dose 128.0 µg/ml, time 18-24 hrs. Background: Broth dilution looks for growth in wells or tubes with falling amounts of substance.

What is called Kd is the free concentration of one partner at which half of the binding sites on the other are occupied at equilibrium, for simple one-to-one binding. A word on the IC50: it is the concentration that gives 50% inhibition. A high value points to a need for much substance. In the case of `CC(=O)N[C@@H](CCC(N)=O)C(=O)N[C@@H](CC1CCCCC1)C(=O)N[C@@H](CC(=O)O)C(=O)N[C@@H](CC(C)C)C(=O)N1[C@H](C(=O)N[C@@H](Cc2ccc(Cl)c(Cl)c2)C(=O)O)C[C@@H]2CCCC[C@@H]21` (Ac-Q[Cha]DL[Oic][Phe(3,4-Cl2)]-OH), the dissociation constant Kd in experiment [1] was determined as 39 nM. In addition, the deltaG in the experiment with Escherichia coli [2] was -10.1 kcal/mol. In addition, the K is 6 10^4/M/s in the experiment with Escherichia coli [3] and 2.3 10^-3/s with Escherichia coli [4]. Also, the IC50 in experiment [5] was found to be 150 nM. Moreover, the outcome in the experiment on Escherichia coli [6] was inactive.
